Reference: paper PMC4281096 (Journal of Medicinal Chemistry, 2014)

Key:
[1] = system: SJSA-1 osteosarcoma tumor cell line
[2] = ref [24], cited from earlier work; for isomerization after 6 days: acetonitrile/water solution
[3] = molecular target: recombinant human His-tagged MDM2 protein (residues 1–118) (Homo sapiens, UniProt Q00987); settings: in words
[4] = system: p53 activation and apoptosis in SJSA-1 tumor tissue; settings: mouse, in vivo, po, 100 mg/kg
[5] = system: SJSA-1 osteosarcoma xenografts; settings: 100 mg/kg, orally daily for 14 days
[6] = 17D 200 mg/kg or 31 100 mg/kg, daily oral 14 days

Chain of recombinant human His-tagged MDM2 protein (residues 1–118) (Q00987 1-118): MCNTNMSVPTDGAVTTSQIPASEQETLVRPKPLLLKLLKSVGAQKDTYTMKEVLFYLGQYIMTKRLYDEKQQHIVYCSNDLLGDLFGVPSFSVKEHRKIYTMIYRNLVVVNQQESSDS

SMILES | IC50 values in inhibition of cell growth [1] | further results
O=C(NCCN1CCOCC1)[C@@H]1NC2(CCCCC2)[C@@]2(C(=O)Nc3cc(Cl)ccc32)[C@H]1c1cccc(Cl)c1F [Compound 23D] | sub-micromolar | 
CC1(C)N[C@@H](C(=O)N[C@H]2CC[C@H](O)CC2)[C@H](c2cccc(Cl)c2F)[C@]12C(=O)Nc1cc(Cl)ccc12 [Compound 12D, (3R,4′S,5′R)-6-Chloro-4′-(3-chloro-2-fluorophenyl)-N-((1R,4R)-4-hydroxycyclohexyl)-2′,2′-dimethyl-2-oxospiro[indoline-3,3′-pyrrolidine]-5′-carboxamide] | low micromolar range | 
CC(C)(C)C[C@@H]1N[C@@H](C(=O)N[C@H]2C[C@@](C)(O)C2)[C@H](c2cccc(Cl)c2F)[C@]12C(=O)Nc1cc(Cl)ccc12 [Compound 3] |  | % composition of compound in 1:1 CH3CN/H2O, 0 h ([2]; 0 h): 100%; isomerization after 6 days [2]: 2.3%
CCCC1(CCC)N[C@@H](C(=O)N[C@H]2CC[C@H](O)CC2)[C@H](c2cccc(Cl)c2F)[C@]12C(=O)Nc1cc(Cl)ccc12 [Compound 14D, (3R,4′S,5′R)-6-Chloro-4′-(3-chloro-2-fluorophenyl)-N-((1r,4R)-4-hydroxycyclohexyl)-2-oxo-2′,2′-di-n-propylspiro[indoline-3,3′-pyrrolidine]-5′-carboxamide] | low micromolar range | 
N[C@@H](C(=O)N[C@H]1CC[C@H](O)CC1)[C@H](c1cccc(Cl)c1F)C1C(=O)Nc2cc(Cl)ccc21 (stereo partly drawn) [Compound 20] |  | binding to MDM2 [3]: does not bind to MDM2
C[C@]1(O)C[C@@H](NC(=O)[C@@H]2NC3(CCCCC3)[C@@]3(C(=O)Nc4cc(Cl)ccc43)[C@H]2c2cccc(Cl)c2F)C1 [Compound 29D] | sub-micromolar | 
O=C(N[C@H]1CC[C@H](O)CC1)[C@@H]1NC2(CCC2)[C@]2(C(=O)Nc3cc(Cl)ccc32)[C@H]1c1cccc(Cl)c1F [Compound 15C, (3′S,4′S,5′R)-6″-Chloro-4′-(3-chloro-2-fluorophenyl)-N-((1R,4R)-4-hydroxycyclohexyl)-2″-oxodispiro[cyclobutane-1,2′-pyrrolidine-3′,3″-indoline]-5′-carboxamide] | low micromolar range | 
O=C(O)c1ccc(NC(=O)[C@@H]2NC3(CCCCC3)[C@@]3(C(=O)Nc4cc(Cl)ccc43)[C@H]2c2cccc(Cl)c2F)cc1 [Compound 31, 4-((3′R,4′S,5′R)-6″-Chloro-4′-(3-chloro-2-fluorophenyl)-2″-oxodispiro[cyclohexane-1,2′-pyrrolidine-3′,3″-indoline]-5′-carboxamido)benzoic Acid] |  | PARP cleavage (apoptosis induction) in tumor tissue [4]: robust cleavage of PARP; p53 activation (accumulation of p53, MDM2 and p21 proteins) in tumor tissue [4]: effectively activated p53; mice with no detectable tumor ([5]; day 25, of eight mice): three; tumor regression ([5]; in words): achieved significant tumor regression; signs of toxicity during or after the treatment [6]: did not show any signs of toxicity; weight loss [6]: no weight loss
C[C@]1(O)C[C@@H](NC(=O)[C@@H]2NC3(CCC3)[C@]3(C(=O)Nc4cc(Cl)ccc43)[C@H]2c2cccc(Cl)c2F)C1 [Compound 28C] | low micromolar range | 
O=C(N[C@H]1CC[C@H](O)CC1)[C@@H]1NC2(CCCCC2)[C@@]2(C(=O)Nc3cc(Cl)ccc32)[C@H]1c1cccc(Cl)c1F [Compound 17D, (3′R,4′S,5′R)-6″-Chloro-4′-(3-chloro-2-fluorophenyl)-N-((1R,4R)-4-hydroxycyclohexyl)-2″-oxodispiro[cyclohexane-1,2′-pyrrolidine-3′,3″-indoline]-5′-carboxamide] | sub-micromolar | signs of toxicity during or after the treatment [6]: did not show any signs of toxicity; weight loss [6]: no weight loss
O=C(NCCN1CCOCC1)[C@@H]1NC2(CCC2)[C@]2(C(=O)Nc3cc(Cl)ccc32)[C@H]1c1cccc(Cl)c1F [Compound 22C] | low micromolar range | 
CC(C)(C)C[C@@H]1N[C@@H](C(=O)NCC[C@H](O)CO)[C@H](c2cccc(Cl)c2F)[C@]12C(=O)Nc1cc(Cl)ccc12 [MI-147] |  | isomerization after 6 days [2]: 8.6%
O=C(NCC[C@H](O)CO)[C@@H]1NC2(CCCCC2)[C@@]2(C(=O)Nc3cc(Cl)ccc32)[C@H]1c1cccc(Cl)c1F [Compound 26D] | sub-micromolar | 
O=C(N[C@H]1CC[C@H](O)CC1)[C@@H]1NC2(CCCC2)[C@@]2(C(=O)Nc3cc(Cl)ccc32)[C@H]1c1cccc(Cl)c1F [Compound 16D, (3′R,4′S,5′R)-6″-Chloro-4′-(3-chloro-2-fluorophenyl)-N-((1R,4R)-4-hydroxycyclohexyl)-2″-oxodispiro[cyclopentane-1,2′-pyrrolidine-3′,3″-indoline]-5′-carboxamide] | sub-micromolar | 
O=C(NCC[C@H](O)CO)[C@@H]1NC2(CCC2)[C@]2(C(=O)Nc3cc(Cl)ccc32)[C@H]1c1cccc(Cl)c1F [Compound 25C] | low micromolar range | 
O=C(NCCN1CCOCC1)[C@@H]1NC2(CCC2)[C@@]2(C(=O)Nc3cc(Cl)ccc32)[C@H]1c1cccc(Cl)c1F [Compound 22D] | low micromolar range | 
O=C(N[C@H]1CC[C@H](O)CC1)[C@@H]1NC2(CCC2)[C@@]2(C(=O)Nc3cc(Cl)ccc32)[C@H]1c1cccc(Cl)c1F [Compound 15D, (3′R,4′S,5′R)-6″-Chloro-4′-(3-chloro-2-fluorophenyl)-N-((1R,4R)-4-hydroxycyclohexyl)-2″-oxodispiro[cyclobutane-1,2′-pyrrolidine-3′,3″-indoline]-5′-carboxamide] | low micromolar range | 
CC(C)(C)C[C@@H]1N[C@@H](C(=O)NCCN2CCOCC2)[C@H](c2cccc(Cl)c2F)[C@]12C(=O)Nc1cc(Cl)ccc12 [MI-63] |  | isomerization after 6 days [2]: 17.3%
O=C(NCC[C@H](O)CO)[C@@H]1NC2(CCC2)[C@@]2(C(=O)Nc3cc(Cl)ccc32)[C@H]1c1cccc(Cl)c1F [Compound 25D] | low micromolar range | 
